# US4925930A, “Synthesis and anti-leukemic activity of alkyl-1-(β-D-ribofuranosyl)[1,2,4]triazole-3-carboximidates” (Nucleic Acid Research Institute, priority 1988, dated 1990)
# Values joined by “and” are separate entries in the source; they are usually repeats but may differ in a detail not shown here. Identical values can stand only once. Like-named read-outs stand apart in the source and are kept apart here.
# What was measured:
# [1] = test system: WI-L2 human B lymphoblastic leukemia; test: In vitro growth inhibition of WI-L2; assay type: cell-based; conditions: in vitro cell culture
# Protocol: (§1) Compounds (4)and (5) were also tested in vitro for their capacity to inhibit the growth of L1210 murine lymphocytic leukemia, WI-L2 human B lymphoblastic leukemia, and CCRF-CEM human T lymphoblastic leukemia in vitro.
# [2] = in water; for maximum dosage which could be delivered as a single bolus (maximum soluble dosage): 0.01 ml/gram mouse weight
# Friend leukemia = conditions: for Spleen Weight / tox (in Spleen Weight column): day 1,3,5,7,9,11, ip; for Spleen Weight: control w/tumor 1538 ± 561, wo/tumor 82 ± 11; for Friend leukemia-related splenomegaly diminished: nontoxic dosing
# parainfluenza type 3 = assay type: cell-based; conditions: cell culture
# murine leukemia L1210 = test: in vivo; assay type: in vivo; conditions: for Residual Cell Population After Last Treatment: calculated from inoculum response data; for antitumor activity in vivo: summary, as per Examples 6 and 7 (L1210 and Friend leukemia)
# Source text: (§2) In Vivo assessments of therapeutic efficacy and host toxicity with murine leukemia L1210 were made as detailed in M. Kuehl; D. I. Brixner; A. D. Broom; T. L. Avery; R. L. Blakley, Cancer Res., 1988, 48, 1481.
# (§3) ^b Treatment responses (6 mice/treatment group) presented as % T/C
# (§4) ^c Calculations of residual leukemic cell populations were made using
# (§5) ^a Except where otherwise indicated, all solutions were delivered ip
# [3] = test system: herpes simplex type 2 viruses; assay type: cell-based; conditions: cell culture
# viruses = test: Cell culture antiviral activity (general statement); assay type: cell-based
# semliki forest = assay type: cell-based; conditions: cell culture
# influenza A = assay type: cell-based
# adeno type 2 = assay type: cell-based; conditions: cell culture
# visna = assay type: cell-based; conditions: cell culture
# [4] = test system: L1210 murine lymphocytic leukemia; test: In vitro cytotoxicity / growth inhibition of L1210 murine lymphocytic leukemia; assay type: cell-based; conditions: for in vitro growth inhibition: L1210, in vitro cell culture; for cytotoxicity for L1210 cells: cells growing in vitro
# [5] = test system: CCRF-CEM human T lymphoblastic leukemia; test: In vitro growth inhibition of CCRF-CEM; assay type: cell-based; conditions: in vitro cell culture
# Protocol: as §1
# rhino A = assay type: cell-based; conditions: cell culture
# in vivo = assay type: in vivo; conditions: mouse, in vivo, ip, read-out: maximum non-lethal dosage
# Source text: as §2, §3, §4, §5
# HIV = conditions: human T lymphocytes; 50 μg/mL; cited from earlier work
# [6] = bid, day 1,3,5,7, 480 mg/kg, ip
# [7] = qd, day 1-7, 480 mg/kg, ip, 480 mg/kg
# [8] = qd, day 1, 480 mg/kg, ip, 480 mg/kg
structure (smiles),measurement,setting,value
"COC(=N)c1ncn([C@@H]2O[C@H](CO)[C@@H](O)[C@H]2O)n1 [Compound (4), Methyl-1-(β-D-ribofuranosyl)[1,2,4]triazole-3-carboximidate]",in vitro growth inhibition,[1],neither compound demonstrated in vitro growth inhibition
same,water solubility relative to biological activity,[2],limited water solubility
same,maximum dosage which could be delivered as a single bolus (maximum soluble dosage),[2],480 mg/kg
same,Spleen Weight,"Friend leukemia; bid, 288 mg/kg, P < 0.005",150 ± 53 mg
same,tox (in Spleen Weight column),"Friend leukemia; bid, 480 mg/kg",tox
same,Friend leukemia-related splenomegaly diminished,Friend leukemia,significantly diminished
same,Spleen Weight,"Friend leukemia; qd, 288 mg/kg, P < 0.02",599 ± 133 mg
same,Spleen Weight,"Friend leukemia; qd, 480 mg/kg, P < 0.01",216 ± 60 mg
same,antiviral activity,parainfluenza type 3,inactive
same,Postinoculation Lifespan (% T/C),murine leukemia L1210; [6],162 % T/C
same,Residual Cell Population After Last Treatment,murine leukemia L1210; [6],12 % of control
same,Postinoculation Lifespan (% T/C),"murine leukemia L1210; bid, day 1-7, 480 mg/kg, ip",101 % T/C
same,Postinoculation Lifespan (% T/C),"murine leukemia L1210; bid, day 1, 480 mg/kg, ip",125 % T/C
same,Residual Cell Population After Last Treatment,"murine leukemia L1210; bid, day 1, 480 mg/kg, ip",9 % of control
same,T/C,"murine leukemia L1210; qd day 1, maximum soluble dosage, 480 mg/kg, repeated",≈ 115
same,Postinoculation Lifespan (% T/C),"murine leukemia L1210; qd, day 1,3,5,7, 480 mg/kg, ip",121 % T/C
same,Residual Cell Population After Last Treatment,"murine leukemia L1210; qd, day 1,3,5,7, 480 mg/kg, ip",46 % of control
same,Postinoculation Lifespan (% T/C),"murine leukemia L1210; qd, day 1,4,7, 480 mg/kg, ip",119 % T/C
same,Residual Cell Population After Last Treatment,"murine leukemia L1210; qd, day 1,4,7, 480 mg/kg, ip",73 % of control
same,Postinoculation Lifespan (% T/C),murine leukemia L1210; [7],162 % T/C and 142 % T/C
same,Residual Cell Population After Last Treatment,murine leukemia L1210; [7],12 % of control and 7 % of control
same,Postinoculation Lifespan (% T/C),"murine leukemia L1210; qd, day 1-7, 480 mg/kg, po",97 % T/C
same,Residual Cell Population After Last Treatment,"murine leukemia L1210; qd, day 1-7, 480 mg/kg, po",139 % of control
same,Postinoculation Lifespan (% T/C),murine leukemia L1210; [8],113 % T/C and 114 % T/C and 116 % T/C
same,Residual Cell Population After Last Treatment,murine leukemia L1210; [8],32 % of control and 30 % of control and 21 % of control
same,lethal toxicity,"murine leukemia L1210; qid day 1, 480 mg/kg/injection",lethally toxic
same,Postinoculation Lifespan (% T/C),"murine leukemia L1210; qid, day 1, 480 mg/kg, ip",60 % T/C
same,antitumor activity in vivo,murine leukemia L1210,significant antitumor activity in vivo
same,T/C,"murine leukemia L1210; tid day 1, 480 mg/kg/injection",153
same,leukemic cell kill,"murine leukemia L1210; tid day 1, 480 mg/kg/injection",> 99%
same,Postinoculation Lifespan (% T/C),"murine leukemia L1210; tid, day 1,3,5,7, 480 mg/kg, ip",76 % T/C
same,Postinoculation Lifespan (% T/C),"murine leukemia L1210; tid, day 1-7, 480 mg/kg, ip",61 % T/C
same,Postinoculation Lifespan (% T/C),"murine leukemia L1210; tid, day 1, 480 mg/kg, ip",153 % T/C
same,Residual Cell Population After Last Treatment,"murine leukemia L1210; tid, day 1, 480 mg/kg, ip",0.6 % of control
same,antiviral activity,[3],inactive
same,cell culture antiviral activity,viruses,devoid themselves of cell culture antiviral activity
same,antiviral activity,semliki forest,inactive
same,antiviral activity,influenza A,inactive
same,antiviral activity,adeno type 2,inactive
same,antiviral activity,visna,inactive
same,in vitro growth inhibition,[4],neither compound demonstrated in vitro growth inhibition
same,cytotoxicity for L1210 cells,[4],neither compound (4) nor compound (5) was cytotoxic
same,in vitro growth inhibition,[5],neither compound demonstrated in vitro growth inhibition
same,antiviral activity,rhino A,inactive
"CCOC(=N)c1ncn([C@@H]2O[C@H](CO)[C@@H](O)[C@H]2O)n1 [Compound (5), Ethyl-1-(β-D-ribofuranosyl)[1,2,4]triazole-3-carboximidate]",in vitro growth inhibition,[1],neither compound demonstrated in vitro growth inhibition
same,maximum dosage which could be delivered as a single bolus (maximum soluble dosage),[2],3704 mg/kg
same,Friend leukemia-related splenomegaly diminished,Friend leukemia,not
same,Spleen Weight,"Friend leukemia; qd, 480 mg/kg",1257 ± 185 mg
same,tox (in Spleen Weight column),"Friend leukemia; qd, 800 mg/kg",tox
same,tox (in Spleen Weight column),"Friend leukemia; qd, 1333 mg/kg",tox
same,antiviral activity,parainfluenza type 3,inactive
same,dosage/schedule dependence of anti-L1210 activity,"murine leukemia L1210; mouse, in vivo",more dosage than schedule dependent
same,lethal toxicity for L1210-inoculated mice,"murine leukemia L1210; mouse, in vivo, 3704 mg/kg",lethally toxic
same,therapeutic efficacy,"murine leukemia L1210; qd day 1, 288 mg/kg",decline of therapeutic efficacy
same,leukemic cell kill,"murine leukemia L1210; qd day 1, 1333 mg/kg, gauged by inoculum response data",98.7%
same,T/C,"murine leukemia L1210; qd day 1, maximum non-lethal dosage, 1333 mg/kg",149
same,lethal toxicity,"murine leukemia L1210; qd days 1-7, compared with qd day 1",lethal toxicity was produced by lower dosages
same,increase in mean life span (T/C),"murine leukemia L1210; qd days 1-7, maximum non-lethal dosage, 288 mg/kg",144
same,Postinoculation Lifespan (% T/C),"murine leukemia L1210; qd, day 1-7, 288 mg/kg, ip",144 % T/C
same,Residual Cell Population After Last Treatment,"murine leukemia L1210; qd, day 1-7, 288 mg/kg, ip",1.7 % of control
same,Postinoculation Lifespan (% T/C),"murine leukemia L1210; qd, day 1-7, 480 mg/kg, ip",134 % T/C
same,Postinoculation Lifespan (% T/C),"murine leukemia L1210; qd, day 1-7, 800 mg/kg, ip",70 % T/C
same,Postinoculation Lifespan (% T/C),"murine leukemia L1210; qd, day 1, 288 mg/kg, ip",114 % T/C
same,Residual Cell Population After Last Treatment,"murine leukemia L1210; qd, day 1, 288 mg/kg, ip",27.0 % of control
same,Postinoculation Lifespan (% T/C),"murine leukemia L1210; qd, day 1, 480 mg/kg, ip",149 % T/C
same,Residual Cell Population After Last Treatment,"murine leukemia L1210; qd, day 1, 480 mg/kg, ip",1.1 % of control
same,Postinoculation Lifespan (% T/C),"murine leukemia L1210; qd, day 1, 800 mg/kg, ip, 800 mg/kg",159 % T/C and 144 % T/C
same,Postinoculation Lifespan (% T/C),"murine leukemia L1210; qd, day 1, 1333 mg/kg, ip",149 % T/C
same,Residual Cell Population After Last Treatment,"murine leukemia L1210; qd, day 1, 1333 mg/kg, ip",1.3 % of control
same,Postinoculation Lifespan (% T/C),"murine leukemia L1210; qd, day 1, 2222 mg/kg, ip",92 % T/C
same,Postinoculation Lifespan (% T/C),"murine leukemia L1210; qd, day 1, 3704 mg/kg, ip",48 % T/C
same,antitumor activity in vivo,murine leukemia L1210,significant antitumor activity in vivo
same,MTD,in vivo; qd day 1,1330 mg/kg
same,MTD,in vivo; qd days 1-7,288 mg/kg
same,antiviral activity,[3],inactive
same,cell culture antiviral activity,viruses,devoid themselves of cell culture antiviral activity
same,antiviral activity,semliki forest,inactive
same,antiviral activity,influenza A,inactive
same,antiviral activity,adeno type 2,inactive
same,antiviral activity,visna,inactive
same,in vitro growth inhibition,[4],neither compound demonstrated in vitro growth inhibition
same,cytotoxicity for L1210 cells,[4],neither compound (4) nor compound (5) was cytotoxic
same,in vitro growth inhibition,[5],neither compound demonstrated in vitro growth inhibition
same,antiviral activity,rhino A,inactive
"NC(=O)c1ncn([C@@H]2O[C@H](CO)[C@@H](O)[C@H]2O)n1 [ribavirin, 1-(β-D-ribofuranosyl)-[1,2,4]triazole-3-carboxamide]",inhibition of HIV replication,HIV,inhibits the replication
